Biological target: human BLT1 receptor (Homo sapiens (Human), UniProt Q15722)
Assay: BLT-1 cAMP Assay
Type: cell-based
Settings: antagonist mode; HEK293 cells recombinantly expressing human BLT1 receptor; forskolin 4 μM and LTB4 2 nM
Description: The ability of compounds to antagonize the human BLT1 receptor was determined using a kit to measure changes in intracellular cyclic AMP levels (cAMP dynamic assay kit, Cisbio Cat. No. 62AM4PEC). HEK293 cells recombinantly expressing human BLT1 receptor, previously frozen in Recovery Medium (Life Technologies, Cat. No. 12648-010) were thawed and diluted into assay medium (HBSS (Hyclone SH 30268.01), 20 mM HEPES (Gibco 15630-106), 800 μM IBMX (Sigma 15879), 0.1% DTPA BSA (Perkin Elmer CR84-100)). The cell suspension was centrifuged at 200×g for 10 min and then resuspended in fresh assay medium to a density of 2.5×10^5 cells/mL. A Labcyte Echo 550 acoustic dispenser was used to transfer 25 nL of test compound dissolved in DMSO into the wells of a dry 384-well plate (Greiner 784075). All subsequent liquid additions were performed using a BIORAPTR (FRD; Beckman Coulter). Next, 5 μL of cell suspension was added and incubated for 20 min. at 37° C. and 5% CO2 in a humidified plastic tray. To test for agonist activity 5 μL of assay buffer containing forskolin (Sigma F-6886. 4 μM for BLT1) was added and incubated for 30 minutes at 37° C. and 5% CO2 in a humidified plastic tray. To test for antagonist activity 5 μL of assay buffer containing forskolin (Sigma F-6886. 4 μM for BLT1) and either LTB4 (Sigma Aldrich L0517; 2 nM BLT1) was added and incubated for 30 minutes at 37° C. and 5% CO2 in a humidified plastic tray.
The levels of cAMP were detected using the CisBio kit following the manufacturer's instructions: cAMP-d2 vial was reconstituted with distilled water and then diluted accordingly with conjugate & lysis buffer. 5 μL of cAMP-d2 working solution was added to all of the wells of the assay plate. cAMP-Cryptate vial was reconstituted with distilled water and then diluted accordingly with conjugate & lysis buffer. 5 μL of cAMP-Cryptate working solution were added to the assay plate. The assay plate was shaken for 3 minutes and incubated at room temperature for 45 minutes, then read on Perkin Elmer Envision. cAMP standard curve and fit data were plotted using a 4 parameter dose response curve fitting algorithm to fit curve. A 4-parameter curve fit (Max, min, log EC50 and slope) was used to transform fluorescent 665 nm/615 nm ratio signal to cAMP concentration. After normalization to treated and untreated controls, the percent effect of signal at each compound concentration was calculated. The plot of percent effect versus the log of compound concentration was fit with a 4-parameter concentration response equation to calculate EC50 values. Compound concentrations tested were 10 000, 3 333, 1 111, 370.4, 123.4, 41.2, 13.7, 4.6, 1.5 and 0.5 nM with 0.25% residual DMSO.

Chain of human BLT1 receptor (Q15722 whole entry): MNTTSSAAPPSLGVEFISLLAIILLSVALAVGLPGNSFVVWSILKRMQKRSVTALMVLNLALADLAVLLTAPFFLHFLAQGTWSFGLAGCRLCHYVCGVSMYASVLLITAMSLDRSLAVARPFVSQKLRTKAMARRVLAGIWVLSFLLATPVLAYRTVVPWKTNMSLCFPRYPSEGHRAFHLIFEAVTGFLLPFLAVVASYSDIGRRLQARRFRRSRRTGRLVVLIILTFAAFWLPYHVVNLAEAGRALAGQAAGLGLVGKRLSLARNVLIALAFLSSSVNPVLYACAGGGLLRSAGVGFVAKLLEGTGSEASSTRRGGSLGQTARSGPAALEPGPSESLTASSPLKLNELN

| SMILES | EC50 |
| --- | --- |
| O=C(NS(=O)(=O)C1CC1)c1ccccc1-c1ccc2c(c1)OC[C@@H](Cc1ccc(-c3cncs3)cn1)[C@@H]2O (racemic) [Example 8, N-(Cyclopropylsulfonyl)-2-((rac-trans)-4-hydroxy-3-((5-(thiazol-5-yl)pyridin-2-yl)methyl)chroman-7-yl)benzamide] | 12 nM |
| Cc1ncc(-c2ccc(C[C@@H]3COc4cc(-c5ccccc5C(=O)NS(=O)(=O)C5CC5)ccc4[C@H]3O)nc2)s1 (racemic) [Example 9, N-(Cyclopropylsulfonyl)-2-((rac-trans)-4-hydroxy-3-((5-(2-methylthiazol-5-yl)pyridin-2-yl)methyl)chroman-7-yl)benzamide] | 9 nM |
| CC1(S(=O)(=O)NC(=O)c2ccccc2-c2ccc3c(c2)OC[C@H](Cc2ccc(-c4cncs4)cn2)[C@H]3O)CC1 (single isomer, unassigned) [Example 2, 2-((3S, 4R or 3R, 4S)-4-Hydroxy-3-((5-(thiazol-5-yl)pyridin-2-yl)methyl)chroman-7-yl)-N-((1-methylcyclopropyl)sulfonyl)benzamide] | 6 nM |
| CC1(S(=O)(=O)NC(=O)c2ccccc2-c2ccc3c(c2)OC[C@@H](Cc2ccc(-c4cncs4)cn2)[C@@H]3O)CC1 (single isomer, unassigned) [Example 3, 2-((3R, 4S or 3S, 4R)-4-Hydroxy-3-((5-(thiazol-5-yl)pyridin-2-yl)methyl)chroman-7-yl)-N-((1-methylcyclopropyl)sulfonyl)benzamide] | 78 nM |
| Cc1ncc(-c2ccc(C[C@H]3COc4cc(-c5ccccc5C(=O)NS(=O)(=O)C5CC5)ccc4[C@@H]3O)nc2)s1 (single isomer, unassigned) [Example 10, N-(Cyclopropylsulfonyl)-2-((3S,4R or 3R,4S)-4-hydroxy-3-((5-(2-methylthiazol-5-yl)pyridin-2-yl)methyl)chroman-7-yl)benzamide] | 6 nM |
| Cc1ncc(-c2ccc(C[C@@H]3COc4cc(-c5ccccc5C(=O)NS(=O)(=O)C5CC5)ccc4[C@H]3O)nc2)s1 (single isomer, unassigned) [Example 11, N-(Cyclopropylsulfonyl)-2-((3R,4S or 3S,4R)-4-hydroxy-3-((5-(2-methylthiazol-5-yl)pyridin-2-yl)methyl)chroman-7-yl)benzamide] | 391 nM |
| CC1(S(=O)(=O)NC(=O)c2ccccc2-c2ccc3c(c2)OC[C@@H](Cc2ccc(-c4cncs4)cn2)[C@@H]3O)CC1 [Example 1, 2-((Rac-trans)-4-Hydroxy-3-((5-(thiazol-5-yl)pyridin-2-yl)methyl)chroman-7-yl)-N-((1-methylcyclopropyl)sulfonyl)benzamide] | 6 nM |

Other lines, results leading:

| EC50 | SMILES |
| --- | --- |
| 8 nM | CC(C)(C)S(=O)(=O)NC(=O)c1ccccc1-c1ccc2c(c1)OC[C@@H](Cc1ccc(-c3cncs3)cn1)[C@@H]2O (racemic) [Example 4, N-(tert-Butylsulfonyl)-2-((rac-trans)-4-hydroxy-3-((5-(thiazol-5-yl)pyridin-2-yl)methyl)chroman-7-yl)benzamide] |
| 5 nM | Cc1ncc(-c2ccc(C[C@@H]3COc4cc(-c5ccccc5C(=O)NS(=O)(=O)C(C)(C)C)ccc4[C@H]3O)nc2)s1 (racemic) [Example 7, N-(tert-Butylsulfonyl)-2-((rac-trans)-4-hydroxy-3-((5-(2-methylthiazol-5-yl)pyridin-2-yl)methyl)chroman-7-yl)benzamide] |
| 5 nM | CC(C)(C)S(=O)(=O)NC(=O)c1ccccc1-c1ccc2c(c1)OC[C@H](Cc1ccc(-c3cncs3)cn1)[C@H]2O (single isomer, unassigned) [Example 5, N-(tert-Butylsulfonyl)-2-((3S, 4R or 3R, 4S)-4-hydroxy-3-((5-(thiazol-5-yl)pyridin-2-yl)methyl)chroman-7-yl)benzamide] |
| 128 nM | CC(C)(C)S(=O)(=O)NC(=O)c1ccccc1-c1ccc2c(c1)OC[C@@H](Cc1ccc(-c3cncs3)cn1)[C@@H]2O (single isomer, unassigned) [Example 6, N-(tert-Butylsulfonyl)-2-((3R, 4S or 3S, 4R)-4-hydroxy-3-((5-(thiazol-5-yl)pyridin-2-yl)methyl)chroman-7-yl)benzamide] |

From patent US10370368B2, “Aryl acylsulfonamides as BLT1 antagonists” (Merck Sharp & Dohme Corp., priority 2015, dated 2019)
